Experimental data as given in ChEMBL document CHEMBL5724914, “Linking interpersonal differences in gut microbiota composition and drug biotransformation activity” (2024).

Key:
[1] = (§1) The drug is tested on Z-008 corresponding to metagenome with ENA study accession number: PRJEB37062 and ENA sample accession number: ERS12561808 for biotransformation under anaerobic condition. The drug concentrations were measured over 9 timepoints collected between 0 and 24 hours of incubation by liquid-chromatography-coupled mass spectrometry (LC–MS); details: 2 µM
[2] = human gut metagenome, 24 h, 2 µM
[3] = human gut metagenome, 24 h, 2 µM; remark: listed apart in the source
[4] = human gut metagenome, 24 h, 2 µM; remark: listed apart in the source
[5] = (§2) The drug is tested on Z-020 corresponding to rabbit gut metagenome with ENA study accession number: PRJEB37062 and ENA sample accession number: ERS12561819 for biotransformation under anaerobic condition. The drug concentrations were measured over 9 timepoints collected between 0 and 24 hours of incubation by liquid-chromatography-coupled mass spectrometry (LC–MS); details: 2 µM
[6] = human gut metagenome, 24 h, 2 µM; remark: listed apart in the source
[7] = as §2, with “Z-016” for “Z-020”, “mouse” for “rabbit”, “ERS12561815” for “ERS12561819”; details: 2 µM
[8] = human gut metagenome, 24 h, 2 µM; remark: listed apart in the source
[9] = as §2, with “WLS-006” for “Z-020”, “human” for “rabbit”, “ERS12561741” for “ERS12561819”; details: 2 µM
[10] = as §2, with “Z-024” for “Z-020”, “pig” for “rabbit”, “ERS12561823” for “ERS12561819”; details: 2 µM
[11] = as §1, with “Z-023” for “Z-008”, “ERS12561822” for “ERS12561808”; details: 2 µM
[12] = as §1, with “Z-012” for “Z-008”, “ERS12561812” for “ERS12561808”; details: 2 µM
[13] = as §2, with “Z-029” for “Z-020”, “rat” for “rabbit”, “ERS12561828” for “ERS12561819”; details: 2 µM
[14] = as §2, with “Z-013” for “Z-020”, “ERS12561813” for “ERS12561819”; details: 2 µM
[15] = as §1, with “Z-005” for “Z-008”, “ERS12561805” for “ERS12561808”; details: 2 µM
[16] = as §2, with “Z-009” for “Z-020”, “pig” for “rabbit”, “ERS12561809” for “ERS12561819”; details: 2 µM
[17] = human gut metagenome, 24 h, 2 µM; remark: listed apart in the source
[18] = human gut metagenome, 24 h, 2 µM; remark: listed apart in the source
[19] = as §2, with “Z-006” for “Z-020”, “mouse” for “rabbit”, “ERS12561806” for “ERS12561819”; details: 2 µM
[20] = as §2, with “WLS-038” for “Z-020”, “human” for “rabbit”, “ERS12561745” for “ERS12561819”; details: 2 µM
Also: call rule not given here.

Row | Compound | Bacterial Biotransformation [1] | Bacterial Biotransformation [2] | Bacterial Biotransformation [3] | Bacterial Biotransformation [4] | Bacterial Biotransformation [5] | Bacterial Biotransformation [6] | Bacterial Biotransformation [7] | Bacterial Biotransformation [8] | Bacterial Biotransformation [9] | Bacterial Biotransformation [10] | Bacterial Biotransformation [11] | Bacterial Biotransformation [12] | Bacterial Biotransformation [13] | Bacterial Biotransformation [14] | Bacterial Biotransformation [15] | Bacterial Biotransformation [16] | Bacterial Biotransformation [17] | Bacterial Biotransformation [18] | Bacterial Biotransformation [19] | Bacterial Biotransformation [20]
1 | Cc1ccnc2c1NC(=O)c1cccnc1N2C1CC1 [NEVIRAPINE] | Compound NOT metabolized | Compound metabolized | Compound NOT metabolized | Compound NOT metabolized | Compound NOT metabolized | Compound metabolized | Compound NOT metabolized | Compound metabolized | Compound NOT metabolized | Compound NOT metabolized | Compound metabolized | Compound NOT metabolized | Compound NOT metabolized | Compound NOT metabolized | Compound NOT metabolized | Compound NOT metabolized | Compound metabolized | Compound NOT metabolized | Compound NOT metabolized | Compound NOT metabolized
2 | CO[C@]12C[C@@H](COC(=O)c3cncc(Br)c3)CN(C)[C@@H]1Cc1cn(C)c3cccc2c13 [NICERGOLINE] | Compound NOT metabolized | Compound NOT metabolized | Compound NOT metabolized | Compound NOT metabolized | Compound NOT metabolized | Compound NOT metabolized | Compound metabolized | Compound metabolized | Compound metabolized | Compound metabolized | Compound metabolized | Compound NOT metabolized | Compound NOT metabolized | Compound metabolized | Compound metabolized | Compound metabolized | Compound NOT metabolized | Compound NOT metabolized | Compound metabolized | Compound NOT metabolized
3 | COc1ccc2c(c1OC)C(=O)O[C@@H]2[C@H]1c2c(cc3c(c2OC)OCO3)CCN1C [NOSCAPINE] | Compound NOT metabolized | Compound NOT metabolized | Compound NOT metabolized | Compound NOT metabolized | Compound metabolized | Compound metabolized | Compound metabolized | Compound metabolized | Compound metabolized | Compound metabolized | Compound metabolized | Compound NOT metabolized | Compound NOT metabolized | Compound NOT metabolized | Compound metabolized | Compound metabolized | Compound metabolized | Compound metabolized | Compound NOT metabolized | Compound NOT metabolized
4 | CCCc1nc(C(C)(C)O)c(C(=O)OCc2oc(=O)oc2C)n1Cc1ccc(-c2ccccc2-c2nnn[nH]2)cc1 [OLMESARTAN MEDOXOMIL] | Compound metabolized | Compound metabolized | Compound metabolized | Compound metabolized | Compound metabolized | Compound metabolized | Compound metabolized | Compound metabolized | Compound metabolized | Compound metabolized | Compound metabolized | Compound metabolized | Compound NOT metabolized | Compound metabolized | Compound metabolized | Compound metabolized | Compound NOT metabolized | Compound metabolized | Compound metabolized | Compound metabolized
5 | CCN(CC)CC#CCOC(=O)C(O)(c1ccccc1)C1CCCCC1.Cl (stereo not given) [OXYBUTYNIN CHLORIDE] | Compound NOT metabolized | Compound metabolized | Compound NOT metabolized | Compound metabolized | Compound metabolized | Compound metabolized | Compound NOT metabolized | Compound metabolized | Compound metabolized | Compound metabolized | Compound metabolized | Compound metabolized | Compound NOT metabolized | Compound NOT metabolized | Compound metabolized | Compound metabolized | Compound metabolized | Compound NOT metabolized | Compound NOT metabolized | Compound metabolized
6 | Fc1ccc([C@@H]2CCNC[C@H]2COc2ccc3c(c2)OCO3)cc1 [PAROXETINE] | Compound NOT metabolized | Compound metabolized | Compound NOT metabolized | Compound NOT metabolized | Compound NOT metabolized | Compound metabolized | Compound NOT metabolized | Compound metabolized | Compound NOT metabolized | Compound metabolized | Compound metabolized | Compound NOT metabolized | Compound NOT metabolized | Compound NOT metabolized | Compound metabolized | Compound metabolized | Compound metabolized | Compound metabolized | Compound NOT metabolized | Compound metabolized
7 | O=c1[nH]c2ccccc2n1C1CCN(CCCC(c2ccc(F)cc2)c2ccc(F)cc2)CC1 [PIMOZIDE] | Compound metabolized | Compound metabolized | Compound NOT metabolized | Compound NOT metabolized | Compound metabolized | Compound metabolized | Compound metabolized | Compound metabolized | Compound metabolized | Compound metabolized | Compound NOT metabolized | Compound metabolized | Compound NOT metabolized | Compound metabolized | Compound metabolized | Compound metabolized | Compound metabolized | Compound NOT metabolized | Compound metabolized | Compound metabolized
8 | COc1cc2nc(N3CCN(C(=O)c4ccco4)CC3)nc(N)c2cc1OC [PRAZOSIN] | Compound NOT metabolized | Compound metabolized | Compound NOT metabolized | Compound NOT metabolized | Compound NOT metabolized | Compound metabolized | Compound NOT metabolized | Compound metabolized | Compound NOT metabolized | Compound NOT metabolized | Compound NOT metabolized | Compound NOT metabolized | Compound NOT metabolized | Compound NOT metabolized | Compound NOT metabolized | Compound NOT metabolized | Compound metabolized | Compound NOT metabolized | Compound NOT metabolized | Compound NOT metabolized
